Tests used:
Assay type in all cases: cell-based
senescent A549 cells = experiment: Senescence assay, viability of senescent A549 cells; settings: Homo sapiens; chemotherapy-induced senescent A549 cells, 24-72 hours with compound, viability by CellTiter-Glo or XTT; read-out: A549_SEN IC50 (Absolute IC50 average)
Protocol: (§1) Cells were maintained in DMEM media (high glucose, 4 mM L-glutamine, no sodium pyruvate) supplemented with 10% fetal bovine serum in a humidified incubator at 37° C. with 5% carbon dioxide. Senescence was induced via treatment with a sublethal concentration of chemotherapy (bleomycin, gemcitabine, doxorubicin, 5-fluorouridine), followed by a rest period without chemotherapy similarly to what is reported by others in the field (e.g., Aoshiba et al., 2003 Eur Respir J 22:436-443). Senescence was qualified by low EdU (5-ethynyl-2′-deoxyuridine) incorporation and high SA-β-Gal (senescence-associated beta-galactosidase) staining compared to proliferating untreated cells. Senescent cells were plated into 96-well plates at a density of 5-15,000 cells/well. The next day, compounds were added in duplicate across ten different concentrations spanning roughly four Log 10 units. Cells were incubated with the compounds for 24-72 hours, at which point viability is quantified using CellTiter-Glo (Promega) or XTT (R&D Systems). The viability for treated cells was determined relative to untreated control cells. The log of the compound concentration vs. normalized mean viability was a fit to a four parameters Hill function with variable slope. The bottom was constrained to be greater than zero. The X mean value for Y=50 interpolated to determine the absolute IC50. […]

senescent HEPG2 cells = experiment: Senescence assay, viability of senescent HEPG2 cells; settings: Homo sapiens; chemotherapy-induced senescent HEPG2 cells, 24-72 hours with compound, viability by CellTiter-Glo or XTT; read-out: HEPG2_SEN IC50 (Absolute IC50 average)
Protocol: as §1

senescent IMR90 cells = experiment: Senescence assay, viability of senescent IMR90 cells; settings: Homo sapiens, IMR-90; chemotherapy-induced senescent IMR90 cells, 24-72 hours with compound, viability by CellTiter-Glo or XTT; read-out: IMR90_SEN IC50 (Absolute IC50 average)
Protocol: as §1

senescent NHDF cells = experiment: Senescence assay, viability of senescent NHDF cells; settings: Homo sapiens; chemotherapy-induced senescent NHDF cells, 24-72 hours with compound, viability by CellTiter-Glo or XTT; read-out: NHDF_SEN IC50 (Absolute IC50 average)
Protocol: as §1

Row | IC50 (senescent A549 cells) [µM] | IC50 (senescent HEPG2 cells) [nM] | SMILES | IC50 (senescent IMR90 cells) [nM] | IC50 (senescent NHDF cells) [nM]
1 | 1 to 10 | 100 to 1000 | C#CC(F)(F)[C@]1(O)CC[C@H]2[C@@H]3CCC4=CC(=O)CCC4=C3[C@@H](c3ccc(O)cc3)C[C@@]21C [Compound 1, (1S,3aS,3bS,10R,11aS)-1-(1,1-difluoroprop-2-yn-1-yl)-1-hydroxy-10-(4-hydroxyphenyl)-11a-methyl-2H,3H,3aH,3bH,4H,5H,8H,9H,10H,11H-cyclopenta[a]phenanthren-7-one] | 100 to 1000 | 100 to 1000
2 |  |  | C#CC(=O)[C@]1(O)CC[C@H]2[C@@H]3CCC4=CC(=O)CCC4=C3[C@@H](c3ccc(C4CC4)cc3)C[C@@]21C [Compound 2, (8S,11R,13S,14S,17S)-11-(4-cyclopropylphenyl)-17-hydroxy-13-methyl-17-propioloyl-1,2,6,7,8,11,12,13,14,15,16,17-dodecahydro-3H-cyclopenta[a]phenanthren-3-one] |  | 1000 to 10000
